Reference: publication PMC12274840 (The Journal of Biological Chemistry, 2025)
Values after ≈ are worked out from the molar mass of the structure shown.

Key:
[1] = test system: E. coli KA797 cells carrying pUK21 with BlaC I105R; format: cell-based, Escherichia coli; details: antibiotic alone
[2] = test system: E. coli KA797 cells carrying pUK21 with BlaC I105G; format: cell-based, Escherichia coli; details: antibiotic alone
[3] = test system: E. coli KA797 cells carrying pUK21 with CTX-M-14 Y105R; format: cell-based, Escherichia coli; details: antibiotic alone
[4] = test system: E. coli KA797 cells carrying pUK21 with CTX-M-14 Y105G; format: cell-based, Escherichia coli; details: antibiotic alone
[5] = test system: E. coli KA797 cells carrying pUK21 with TEM-1 Y105R; format: cell-based, Escherichia coli; details: antibiotic alone
[6] = test system: E. coli KA797 cells carrying pUK21 with TEM-1 Y105G; format: cell-based, Escherichia coli; details: antibiotic alone
TEM-1 Y105G = TEM-1 Y105G (Escherichia coli, UniProt P62593, Y103G); assay: Steady-state kinetics of substrate hydrolysis, TEM-1 Y105G; format: biochemical; details: phosphate buffer pH 6.4, 25 °C
TEM-1 WT = TEM-1 WT (Escherichia coli, UniProt P62593)

CC1(C)S[C@@H]2[C@H](NC(=O)C(C(=O)O)c3ccccc3)C(=O)N2[C@H]1C(=O)O (stereo partly shown) [carbenicillin]
MIC [1]: 1600 µg/mL (≈ 4.23 mM) | MIC [2]: 800 µg/mL (≈ 2.11 mM) | MIC [3]: 2000 µg/mL (≈ 5.29 mM) | MIC [4]: 1000 µg/mL (≈ 2.64 mM) | MIC [5]: 4000 µg/mL (≈ 10.6 mM) | MIC [6]: 16,000 μg/ml | kcat (TEM-1 Y105G): 59.0 ± 0.3 s⁻¹

CC1(C)S[C@@H]2[C@H](NC(=O)[C@H](N)c3ccccc3)C(=O)N2[C@H]1C(=O)O [ampicillin]
kcat (TEM-1 Y105G): 601 ± 9 s⁻¹ | kcat (TEM-1 WT; phosphate buffer pH 6.4, 25 °C): 2359 ± 16 s⁻¹ | Km (TEM-1 WT; read-out: KM^app, phosphate buffer pH 6.4, 25 °C): 72 ± 1 µM
